Tests used:
[1] = compound: CN(C)C/C=C/C(=O)Nc1ccc(C(=O)Nc2cccc(Nc3ncc(Cl)c(-c4c[nH]c5ccccc45)n3)c2)cc1 [THZ1]; assay: GR value, 72 h; higher = faster growth (1 = untreated, <0 = killing);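 also: breast cancer and non-malignant breast epithelial lines, nine half-log doses, viable cells counted by Hoechst and LIVE/DEAD dye imaging versus time-zero plates and DMSO controls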
[2] = compound: CN(C)C(=O)c1cc2cnc(Nc3ccc(N4CCNCC4)cn3)nc2n1C1CCCC1 [LEE011/Ribociclib]; assay: as above
[3] = compound: C=CC(=O)Nc1ccc(C(=O)Nc2[nH]nc3c2CN(C(=O)N[C@H](CN(C)C)c2ccccc2)C3(C)C)cc1 [YKL-5-124]; assay: as above
[4] = compound: CCN1CCN(Cc2ccc(Nc3ncc(F)c(-c4cc(F)c5nc(C)n(C(C)C)c5c4)n3)nc2)CC1; assay: as above
[5] = compound: T1, CN1CC[C@H](c2c(O)cc(O)c3c(=O)cc(-c4ccccc4Cl)oc23)[C@H](O)C1 [Flavopiridol]; assay: as above
[6] = compound: CN(C)C/C=C/C(=O)Nc1ccc(C(=O)N2CCC[C@@H](Nc3ncc(Cl)c(-c4c[nH]c5ccccc45)n3)C2)cc1 [THZ531]; assay: as above
[7] = compound: CCc1cnn2c(NCc3ccc[n+]([O-])c3)cc(N3CCCC[C@H]3CCO)nc12; assay: as above
[8] = compound: CC(=O)c1c(C)c2cnc(Nc3ccc(N4CCNCC4)cn3)nc2n(C2CCCC2)c1=O; assay: as above
[9] = compound: CCOc1cc2ncc(C#N)c(Nc3ccc(OCc4ccccn4)c(Cl)c3)c2cc1NC(=O)/C=C/CN(C)C [Neratinib/HKI272]; assay: as above
[10] = compound: CC(=O)c1c(C)c2cnc(Nc3ccc(N4CCN(CCOCCOCCOCCNC(=O)COc5cccc6c5C(=O)N(C5CCC(=O)NC5=O)C6=O)CC4)cn3)nc2n(C2CCCC2)c1=O [BSJ-03-123]; assay: as above
[11] = compound: CCN1CCN(Cc2ccc(Nc3ncc(F)c(-c4cc(F)c5nc(C)n(C(C)C)c5c4)n3)nc2)CC1; assay: increase in dead-cell fraction, 72 h; higher = more death;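 also: breast cancer cell lines in 384-well plates, stained with Hoechst plus LIVE/DEAD far red dye and imaged, cells above an LDR intensity threshold counted dead, Hoechst-negative corpses included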
[12] = compound: T1, Flavopiridol; assay: as above

Question: What does the source list for CAMA1?
Answer: GR value ([1]; 0.0001 µM): 0.892 GR; GR value ([1]; 0.0003162 µM): 0.979 GR; GR value ([1]; 0.001 µM): 0.758 GR; GR value ([1]; 0.003162 µM): 0.755 GR; GR value ([1]; 0.01 µM): 0.615 GR; GR value ([1]; 0.03162 µM): 0.549 GR; GR value ([1]; 0.1 µM): 0.208 GR; GR value ([1]; 0.3162 µM): -0.0416 GR; GR value ([1]; 1 µM): -0.467 GR; GR value ([2]; 0.001 µM): 0.721 GR; GR value ([2]; 0.003162 µM): 0.549 GR; GR value ([2]; 0.01 µM): 0.365 GR; GR value ([2]; 0.03162 µM): 0.492 GR; GR value ([2]; 0.1 µM): 0.285 GR; GR value ([2]; 0.3162 µM): 0.207 GR; GR value ([2]; 1 µM): 0.21 GR; GR value ([2]; 3.162 µM): 0.141 GR; GR value ([2]; 10 µM): 0.159 GR; GR value ([3]; 0.001 µM): 0.224 GR; GR value ([3]; 0.003162 µM): 0.229 GR; GR value ([3]; 0.01 µM): 0.0682 GR; GR value ([3]; 0.03162 µM): 0.0899 GR; GR value ([3]; 0.1 µM): 0.0659 GR; GR value ([3]; 0.3162 µM): -0.0547 GR; GR value ([3]; 1 µM): 0.0323 GR; GR value ([3]; 3.162 µM): 0.0041 GR; GR value ([3]; 10 µM): -0.591 GR; GR value ([4]; 0.001 µM): 0.866 GR; GR value ([4]; 0.003162 µM): 0.777 GR; GR value ([4]; 0.01 µM): 0.44 GR; GR value ([4]; 0.03162 µM): 0.272 GR; GR value ([4]; 0.1 µM): 0.257 GR; GR value ([4]; 0.3162 µM): 0.278 GR; GR value ([4]; 1 µM): 0.285 GR; GR value ([4]; 3.162 µM): 0.286 GR; GR value ([4]; 10 µM): 0.223 GR; GR value ([5]; 0.0001 µM): 1.25 GR; GR value ([5]; 0.0003162 µM): 1.12 GR; GR value ([5]; 0.001 µM): 0.73 GR; GR value ([5]; 0.003162 µM): 1.05 GR; GR value ([5]; 0.01 µM): 0.907 GR; GR value ([5]; 0.03162 µM): 0.862 GR; GR value ([5]; 0.1 µM): 0.807 GR; GR value ([5]; 0.3162 µM): 0.194 GR; GR value ([5]; 1 µM): -0.111 GR; GR value ([6]; 0.0001 µM): 1.2 GR; GR value ([6]; 0.0003162 µM): 0.94 GR; GR value ([6]; 0.001 µM): 0.893 GR; GR value ([6]; 0.003162 µM): 1.16 GR; GR value ([6]; 0.01 µM): 1.26 GR; GR value ([6]; 0.03162 µM): 0.867 GR; GR value ([6]; 0.1 µM): 0.777 GR; GR value ([6]; 0.3162 µM): -0.0843 GR; GR value ([6]; 1 µM): -0.403 GR; GR value ([7]; 0.0001 µM): 0.942 GR; GR value ([7]; 0.0003162 µM): 1.05 GR; GR value ([7]; 0.001 µM): 1.01 GR; GR value ([7]; 0.003162 µM): 1 GR; GR value ([7]; 0.01 µM): 0.725 GR; GR value ([7]; 0.03162 µM): -0.0614 GR; GR value ([7]; 0.1 µM): -0.386 GR; GR value ([7]; 0.3162 µM): -0.417 GR; GR value ([7]; 1 µM): -0.494 GR; GR value ([8]; 0.0003162 µM): 0.969 GR; GR value ([8]; 0.001 µM): 0.973 GR; GR value ([8]; 0.003162 µM): 0.94 GR; GR value ([8]; 0.01 µM): 0.887 GR; GR value ([8]; 0.03162 µM): 0.678 GR; GR value ([8]; 0.1 µM): 0.442 GR; GR value ([8]; 0.3162 µM): 0.303 GR; GR value ([8]; 1 µM): 0.3 GR; GR value ([8]; 3.162 µM): 0.288 GR; GR value ([9]; 0.0003162 µM): 1.08 GR; GR value ([9]; 0.001 µM): 1.01 GR; GR value ([9]; 0.003162 µM): 1.01 GR; GR value ([9]; 0.01 µM): 0.989 GR; GR value ([9]; 0.03162 µM): 1 GR; GR value ([9]; 0.1 µM): 0.993 GR; GR value ([9]; 0.3162 µM): 0.949 GR; GR value ([9]; 1 µM): 0.837 GR; GR value ([9]; 3.162 µM): 0.455 GR; GR value ([10]; 0.001 µM): 0.778 GR; GR value ([10]; 0.003162 µM): 0.65 GR; GR value ([10]; 0.01 µM): 0.463 GR; GR value ([10]; 0.03162 µM): 0.391 GR; GR value ([10]; 0.1 µM): 0.264 GR; GR value ([10]; 0.3162 µM): 0.238 GR; GR value ([10]; 1 µM): 0.219 GR; GR value ([10]; 3.162 µM): 0.219 GR; GR value ([10]; 10 µM): 0.0155 GR; increase in dead-cell fraction ([11]; 0.001 µM): -0.0054; increase in dead-cell fraction ([11]; 0.003162 µM): -0.0135; increase in dead-cell fraction ([11]; 0.01 µM): -0.0075; increase in dead-cell fraction ([11]; 0.03162 µM): -0.0084; increase in dead-cell fraction ([11]; 0.1 µM): 0.0035; increase in dead-cell fraction ([11]; 0.3162 µM): -0.0078; increase in dead-cell fraction ([11]; 1 µM): -0.0025; increase in dead-cell fraction ([11]; 3.162 µM): -0.0084; increase in dead-cell fraction ([11]; 10 µM): 0.0143; increase in dead-cell fraction ([12]; 0.0001 µM): 0.0013; increase in dead-cell fraction ([12]; 0.0003162 µM): 0.0009; increase in dead-cell fraction ([12]; 0.001 µM): 0.0022; increase in dead-cell fraction ([12]; 0.003162 µM): 0.0011; increase in dead-cell fraction ([12]; 0.01 µM): 0.0016; increase in dead-cell fraction ([12]; 0.03162 µM): 0.0052; increase in dead-cell fraction ([12]; 0.1 µM): 0.0067; increase in dead-cell fraction ([12]; 0.3162 µM): 0.0207; increase in dead-cell fraction ([12]; 1 µM): 0.107

From the supplement of paper PMC9663587
